Measurements taken from PMC7237647, “Synthesis, in vitro and in vivo evaluation of ^11C-O-methylated arylpiperazines as potential serotonin 1A (5-HT1A) receptor antagonist radiotracers” (EJNMMI Radiopharmacy and Chemistry, 2020).

Experiments:
DOR, KOR, MOR = assay: NIMH-PDSP radioligand binding assay, DOR, KOR, MOR
D1, D5 = assay: NIMH-PDSP radioligand binding assay, D1, D5
5-HT1A receptors = target: 5-HT1A receptors; design: method as in ref Fiorino et al. [2012], Fiorino et al. [2016], Fiorino et al. [2017]; conditions: previous reports, different binding assay methodology; ref Fiorino et al. [2012], Fiorino et al. [2016], Fiorino et al. [2017]; cited from earlier work
SERT = SERT (Homo sapiens, UniProt P31645); assay: NIMH-PDSP radioligand binding assay, SERT
Chain of SERT (P31645 whole entry, species assumed): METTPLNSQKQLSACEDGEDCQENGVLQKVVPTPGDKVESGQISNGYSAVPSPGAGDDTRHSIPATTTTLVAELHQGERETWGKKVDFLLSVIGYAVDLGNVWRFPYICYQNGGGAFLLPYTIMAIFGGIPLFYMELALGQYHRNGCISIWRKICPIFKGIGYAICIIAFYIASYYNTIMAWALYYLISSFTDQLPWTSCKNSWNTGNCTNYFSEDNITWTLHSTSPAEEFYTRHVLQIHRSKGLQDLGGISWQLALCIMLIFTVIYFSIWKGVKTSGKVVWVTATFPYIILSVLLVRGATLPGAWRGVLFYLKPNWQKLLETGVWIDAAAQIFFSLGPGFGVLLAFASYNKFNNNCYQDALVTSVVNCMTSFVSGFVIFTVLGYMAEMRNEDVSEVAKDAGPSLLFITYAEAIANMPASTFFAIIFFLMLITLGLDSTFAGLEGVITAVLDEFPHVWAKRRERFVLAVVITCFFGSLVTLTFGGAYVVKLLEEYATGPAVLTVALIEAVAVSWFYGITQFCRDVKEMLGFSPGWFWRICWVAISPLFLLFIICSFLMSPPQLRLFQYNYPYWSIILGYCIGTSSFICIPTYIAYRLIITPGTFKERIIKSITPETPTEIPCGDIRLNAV
Procedure: (§1) . Cross selectivity for biogenic amines, neurotransmitter receptors, and transporters were determined by radioligand binding assays through NIMH- PDSP using validated and established protocols ([NIMH-PDSP Assay Protocol Book Version III, March 2018]).

5-HT2A = target: T1, 5-HT2A (Homo sapiens, UniProt P28223); assay: NIMH-PDSP radioligand binding assay, 5-HT2A
T1 construct: NIMH-PDSP
T1 sequence (P28223 whole entry, species assumed): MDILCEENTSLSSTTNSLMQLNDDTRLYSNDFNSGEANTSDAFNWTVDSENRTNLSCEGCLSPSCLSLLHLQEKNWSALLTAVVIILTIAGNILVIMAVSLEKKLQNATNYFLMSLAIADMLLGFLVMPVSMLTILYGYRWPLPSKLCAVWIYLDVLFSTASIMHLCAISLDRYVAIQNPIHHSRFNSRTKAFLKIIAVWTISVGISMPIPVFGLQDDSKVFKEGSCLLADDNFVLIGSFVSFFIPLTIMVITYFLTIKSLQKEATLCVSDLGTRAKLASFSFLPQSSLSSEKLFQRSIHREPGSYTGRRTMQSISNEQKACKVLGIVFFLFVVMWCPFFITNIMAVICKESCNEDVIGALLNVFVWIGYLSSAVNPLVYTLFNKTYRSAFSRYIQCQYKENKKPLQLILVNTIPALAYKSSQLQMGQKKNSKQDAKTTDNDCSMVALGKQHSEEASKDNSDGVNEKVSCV

Muscarinic receptors = assay: NIMH-PDSP radioligand binding assay, Muscarinic receptors
NET = NET (Homo sapiens, UniProt P23975); assay: NIMH-PDSP radioligand binding assay, NET
Chain of NET (P23975 whole entry): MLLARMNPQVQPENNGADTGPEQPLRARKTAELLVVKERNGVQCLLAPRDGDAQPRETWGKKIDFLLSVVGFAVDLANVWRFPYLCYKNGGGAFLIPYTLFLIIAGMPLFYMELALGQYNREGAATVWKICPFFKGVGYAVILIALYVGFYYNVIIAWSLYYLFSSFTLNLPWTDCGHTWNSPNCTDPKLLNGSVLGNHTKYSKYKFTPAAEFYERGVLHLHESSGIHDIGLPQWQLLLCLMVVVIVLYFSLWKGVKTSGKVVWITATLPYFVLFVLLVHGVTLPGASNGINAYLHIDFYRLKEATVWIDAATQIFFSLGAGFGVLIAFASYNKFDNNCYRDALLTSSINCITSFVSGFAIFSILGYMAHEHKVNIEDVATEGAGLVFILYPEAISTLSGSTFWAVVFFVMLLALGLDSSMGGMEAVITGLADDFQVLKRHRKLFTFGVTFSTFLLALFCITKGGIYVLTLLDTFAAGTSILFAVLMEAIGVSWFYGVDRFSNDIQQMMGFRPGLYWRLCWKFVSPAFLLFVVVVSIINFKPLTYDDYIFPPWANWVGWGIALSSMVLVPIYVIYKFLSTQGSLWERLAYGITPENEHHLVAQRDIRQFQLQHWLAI
Procedure: as §1

Adenosine receptors = assay: NIMH-PDSP radioligand binding assay, Adenosine receptors
Alpha2C = target: T2, Alpha2C (Homo sapiens, UniProt P18825); assay: NIMH-PDSP radioligand binding assay, Alpha2C
T2 construct: NIMH-PDSP
T2 sequence (P18825 whole entry): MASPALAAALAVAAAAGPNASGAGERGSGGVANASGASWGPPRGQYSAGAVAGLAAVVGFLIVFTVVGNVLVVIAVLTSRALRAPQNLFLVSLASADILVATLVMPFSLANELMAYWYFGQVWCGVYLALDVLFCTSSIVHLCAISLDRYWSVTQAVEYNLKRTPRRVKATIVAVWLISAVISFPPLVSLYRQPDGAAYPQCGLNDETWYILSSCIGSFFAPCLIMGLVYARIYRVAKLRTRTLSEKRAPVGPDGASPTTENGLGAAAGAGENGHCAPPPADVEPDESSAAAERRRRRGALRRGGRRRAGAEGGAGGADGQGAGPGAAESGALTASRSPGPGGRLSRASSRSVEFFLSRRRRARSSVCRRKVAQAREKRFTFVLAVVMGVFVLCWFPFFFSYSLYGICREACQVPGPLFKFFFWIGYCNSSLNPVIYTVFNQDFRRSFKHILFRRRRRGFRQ

5-HT7R = target: T3, 5-HT7R (Homo sapiens, UniProt P34969); assay: NIMH-PDSP radioligand binding assay, 5-HT7R
T3 construct: NIMH-PDSP
T3 sequence (P34969 whole entry): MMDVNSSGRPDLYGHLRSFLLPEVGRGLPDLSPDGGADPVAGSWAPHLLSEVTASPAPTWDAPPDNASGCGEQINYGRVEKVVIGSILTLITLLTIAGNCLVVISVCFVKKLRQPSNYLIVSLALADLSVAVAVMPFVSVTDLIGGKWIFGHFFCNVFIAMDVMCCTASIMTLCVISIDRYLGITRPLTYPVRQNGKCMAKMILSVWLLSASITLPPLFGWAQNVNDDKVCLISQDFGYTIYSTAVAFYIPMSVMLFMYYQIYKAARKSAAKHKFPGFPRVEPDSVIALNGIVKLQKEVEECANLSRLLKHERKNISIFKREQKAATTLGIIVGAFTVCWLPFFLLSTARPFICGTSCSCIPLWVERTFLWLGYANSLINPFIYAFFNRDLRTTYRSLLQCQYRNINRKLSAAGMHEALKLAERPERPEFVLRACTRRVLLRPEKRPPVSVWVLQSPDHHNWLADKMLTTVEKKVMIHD

Beta Receptors = assay: NIMH-PDSP radioligand binding assay, Beta Receptors
D2R = target: T4, D2R (Homo sapiens, UniProt P14416); assay: NIMH-PDSP radioligand binding assay, D2R
T4 construct: NIMH-PDSP
T4 sequence (P14416 whole entry): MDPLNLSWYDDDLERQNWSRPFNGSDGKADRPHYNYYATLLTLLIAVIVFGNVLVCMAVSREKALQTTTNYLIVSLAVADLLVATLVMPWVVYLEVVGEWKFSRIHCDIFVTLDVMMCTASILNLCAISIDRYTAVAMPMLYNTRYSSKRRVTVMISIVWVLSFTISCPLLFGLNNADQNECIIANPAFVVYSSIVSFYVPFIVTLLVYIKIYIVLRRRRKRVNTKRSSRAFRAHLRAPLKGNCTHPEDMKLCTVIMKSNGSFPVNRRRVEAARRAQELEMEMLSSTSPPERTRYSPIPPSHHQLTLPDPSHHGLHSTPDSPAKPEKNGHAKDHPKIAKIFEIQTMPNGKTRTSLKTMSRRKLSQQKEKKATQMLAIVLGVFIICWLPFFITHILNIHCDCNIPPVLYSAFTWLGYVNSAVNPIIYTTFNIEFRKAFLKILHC

5-HT2C [1] = target: T5, 5-HT2C (Homo sapiens, UniProt P28335); design: method as in ref Fiorino et al. [2012]; Fiorino et al. [2016]; Fiorino et al. [2017]; conditions: previous preliminary pharmacological screening; ref Fiorino et al. [2012]; Fiorino et al. [2016]; Fiorino et al. [2017]; cited from earlier work
T5 construct: NIMH-PDSP
T5 sequence (P28335 33-458): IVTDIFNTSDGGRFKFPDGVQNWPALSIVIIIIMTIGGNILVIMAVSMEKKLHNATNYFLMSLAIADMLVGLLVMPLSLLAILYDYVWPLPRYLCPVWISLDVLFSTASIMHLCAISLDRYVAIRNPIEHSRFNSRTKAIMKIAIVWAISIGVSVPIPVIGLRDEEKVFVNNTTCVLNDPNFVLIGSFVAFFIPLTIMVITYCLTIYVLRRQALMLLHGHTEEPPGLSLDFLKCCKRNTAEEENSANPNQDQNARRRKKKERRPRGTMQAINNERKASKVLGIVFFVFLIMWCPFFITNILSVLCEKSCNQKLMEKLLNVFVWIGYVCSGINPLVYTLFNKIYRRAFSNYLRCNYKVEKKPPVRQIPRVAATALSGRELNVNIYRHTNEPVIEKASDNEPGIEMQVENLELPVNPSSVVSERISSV

5-HT2C [2] = target: T5, 5-HT2C; assay: NIMH-PDSP radioligand binding assay, 5-HT2C

For COc1ccccc1N1CCN(CCCN/C(=N\C#N)c2ccccn2)CC1 [Compound 1], the Ki (DOR, KOR, MOR) is given as over 10 µM, the Ki (D1, D5) is given as over 10 µM and the Ki (5-HT1A receptors) is given as 0.00468 µM. The Ki (SERT) was over 10 µM, the Ki (5-HT2A) was over 10 µM and the Ki (Muscarinic receptors) was over 10 µM. It also gave a Ki (NET) of over 10 µM, a Ki (Adenosine receptors) of over 10 µM and a Ki (Alpha2C) of 0.835 µM. The Ki (5-HT7R) was 0.076 µM, the Ki (Beta Receptors) was over 10 µM and the Ki (D2R) was 0.777 µM. The “affinity to 5-HT2C” value (5-HT2C [1]) was “high affinities” and the Ki (5-HT2C [2]) was over 10 µM.
In the case of COc1ccccc1N1CCN(CCNC(=O)c2ccccn2)CC1 [Compound 2], the Ki (DOR, KOR, MOR) is reported as over 10 µM, the Ki (D1, D5) is reported as over 10 µM and the Ki (SERT) is reported as over 10 µM. For the same molecule, the Ki (5-HT2A) was over 10 µM, the Ki (Muscarinic receptors) was over 10 µM and the Ki (NET) was over 10 µM. For the same molecule, the Ki (Adenosine receptors) was over 10 µM, the Ki (Alpha2C) was over 10 µM and the Ki (5-HT7R) was 0.83 µM. It also gave a Ki (Beta Receptors) of over 10 µM, a Ki (D2R) of over 10 µM and a Ki (5-HT2C [2]) of over 10 µM.
